Measurements: US5382572A, “Alkyl and acyl substituted quinolines” (Schering Corporation, priority 1993, dated 1995)
Like-named read-outs stand apart in the source and are kept apart here.

What was measured:
[1] = Compound toxicity assay: 3H-leucine incorporation (translational activity) in HeLa cells; type: cell-based; conditions: human, reduction of leucine incorporation, read-out: CYTOTOXICITY 3H-LEU ASSAY IC50
Procedure: HeLa cells were treated with inhibitory compound for 24 hours, after which levels of translational activity were assayed.
For assay of translational activity, HeLa cultures were grown to 80% confluency in 96 well microtiter plates, treated with appropriate concentrations of compound in 2% EMEM during an overnight incubation at 37° C., then rinsed with HBSS and overlaid with […] of 2% EMEM containing 8 μCi of tritiated leucine (141 Cμ/mMol, Amersham Corp., Arlington Heights Ill.). After a 1 hour incubation at 36.5° C., the cells were rinsed twice with phosphate buffered saline (PBS) and lysed in 400 μl/well of 1×PBS, 0.5% sodium dodecyl sulphate (SDS). After a 10 min incubation at 36.5° C., the contents of the well were transferred to a well in a Millititer HA microfiltration plate (Millipore Corp., Bedford, Mass.). The TCA-insoluble proteins were precipitated onto the filter disc by a 10-minute-fixation with 5% TCA, followed by filtration under vacuum and three 10-minute-rinses with 95% ethanol. The filters were dried at room temperature, cut from the millititer plate and transferred to scintillation vials. TCA precipitable counts were assayed in 5 ml of Scintisol (Isolab, Akron, Ohio). The inhibitory activity of a compound was plotted versus the concentration and an IC50 value (that concentration of the compound required to decrease cellular translational activity by 50%) was derived for each compound.
Cytotoxicity refers to the IC50 values in the 3H-leucine (3H-Leu) incorporation. The IC50 values in this test refer to the concentration of the compound in micrograms/milliliter which reduces leucine incorporation by 50%.

HSV-2 (strain MS) = experiment: HSV-β-gal assay: transient expression of beta-galactosidase in transfected HeLa cells superinfected with HSV-2; type: cell-based; conditions: Human alphaherpesvirus 2, HeLa, 24 h, inhibition of beta-galactosidase expression, MOI 5 pfu/cell, read-out: ANTI-HSV ACTIVITY HSV-β-GAL ASSAY IC50
Procedure: HeLa and Vero cell cultures were maintained in Eagle's Minimal Essential Medium (EMEM) which was supplemented with glutamine, penicillin, streptomycin and 10% fetal calf serum (10% EMEM). Stock cultures of HSV-2 (strain MS available from ATCC VR-540) were grown in and harvested from Vero cells. Viral stocks were titered in Vero cells according to established procedures.
Plasmid pON 245^ori- contains the promoter of the HSV-1 thymidine kinase (tk) gene located immediately 5' of the E. coli lac Z gene. In this arrangement, the tk promoter controls transcription from the bacterial gene in transient expression assays. Additionally, an SV40 polyadenylation signal is present at the 3'-end of the lac Z gene to allow for the efficient translation of the mRNA in eucaryotic cells. The expression of beta-galactosidase in a transient assay using pON 245^ori- is dependent upon superinfection of the transfected cells with HSV. […] For example, see European Patent Application No. 8302149.5 filed Mar. 11, 1988 and published Sep. 14th 1988 as 282,330, the disclosure of which is incorporated herein by reference thereto.
HeLa cells were seeded into 96 well microtiter plates and allowed to grow to 80% confluency (approximately 35000 cells/well). One half microgram of plasmid pON 245^ori- DNA was introduced into the cells of each well by the […] precipitation technique (Grahman and Van der Eb, 1973). Four to six hours later, the cells were rinsed with Hank's Balanced Salt Solution (HBSS), overlaid with 10% EMEM and incubated at 37° C. At 24 hour post-transfection, cells were rinsed, overlaid with 10% EMEM again and re-incubated at 37° C. At 48 hours. post-transfection, cells were rinsed and overlaid with either EMEM containing 2% fetal calf serum (2% EMEM), 2% EM EM containing HSV-2 (strain MS, Multiplicity of Infection [moil =5 pfu/cell) or 2% EMEM containing HSV-2 and the appropriate concentration of the compound to be tested. Twenty-four hours later, the cells were harvested and assayed for beta-galactosidase activity as described below.
(§1) All determinations of beta-galactosidase activity were performed in 96 well microtiter plates. The intracellular level of beta-galactosidase activity in each well was determined from cell lysates of the monolayer cultures. Aliquots were assayed by incubation in the presence of beta-galactosiclasesubstrate, 4-methyl-umbelliferyl-β-D-galactoside (MUG, 125 μg/ml, Sigma), for 2 hour. The generation of fluorescent product was quantified on a Microfluor microfluorimeter (Dynatech) after addition of 0.1M glycine, pH 10.3 (Spaete and Mocarski, 1985). The inhibitory activity of a compound was plotted versus the concentration and an IC50 value (the concentration of compound required to reduce beta-galactosidase expression by 50%) was obtained for each compound tested.
Anti-HSV activity refers to the IC50 values in the HSV-β-gal assay which measures anti-viral activity in terms of inhibition of beta-galactosidase expression. The IC50 values refer to the concentration of the compound in micrograms/milliliter needed to reduce beta-galactosidase expression by 50%.

[2] = system: antiviral activity of lidocaine or lidocaine hydrochloride; conditions: added to lidocaine or lidocaine hydrochloride; Haines et al.; cited from earlier work
HSV-2, strain MS = experiment: Prophylactic guinea pig model of HSV-2 infection; type: in vivo; conditions: test compounds 60 mg/kg s.c., T.I.D., 10 days, from 24 hours before infection; for MLS (Maximum Lesion Scores): scale of 1 (least) to 4 (severe), placebo 3; for NEUROLOGICAL DYSFUNCTIONS (percentage animals developing loss of bladder/hindlimb control): placebo 87
Procedure: The in vive assessment of anti-HSV efficacy was determined in the prophylactic guinea pig model of HSV infection described by Stansberry et al (1982). Dosing of guinea pigs comprised an initial treatment with test compound given 24 hours prior to virus infection and subsequent administration of the compound every eight hours (T.I.D.) for a total of 10 days. Test compounds were administered subcutaneously in 0.5% buffered methyl celluslose at a dose of 60 mg per kg body weight of the animal. Animals were monitored daily for the development of genital lesions and neurological symptomology, both of which were recorded and compared to the results obtained with parallel groups which received placebo or acyclovir treatment. Efficacy was evaluated for each compound by scoring the ability of the compound to ameliorate genital lesions produced by infection with HSV-2, strain MS, expressed as Maximum Lesion Scores (MLS) on a scale of 1 (least lesion) to 4 (severe lesions).

[3] = CMV toxicity assay: tritiated leucine (3H-Leu) assay in HFF cells; type: cell-based; conditions: HFF cells (human foreskin fibroblast); read-out: CYTOTOXICITY 3H-LEU ASSAY IC50
CMV (strain Towne) = experiment: CMV-β-Gal assay: beta-galactosidase transient expression assay with CMV; type: cell-based; conditions: Human betaherpesvirus 5, read-out: ANTI-CMV ACTIVITY CMV-β-Gal ASSAY IC50, CMV strain Towne
Procedure: as §1
Human foreskin fibroblast (HHF) cell cultures were grown in 10% EMEM. CMV (strain Towne received from Stanford University) was grown and titered in HHF cells. Plasmids pON 249 and pON 241 Δ NH3, containing CMV promoter genes, were used in the β-galactosidase transient expression assay as shown above.

SMILES	CC50 at 24 h ([1]; *Repeat) [µg/mL]	CC50 at 24 h ([1]; first value) [µg/mL]	IC50 (HSV-2 (strain MS); *Repeat) [µg/mL]	IC50 (HSV-2 (strain MS); first value) [µg/mL]	enhancement of antiviral activity of lidocaine or lidocaine hydrochloride [2]	MLS (Maximum Lesion Scores) (HSV-2, strain MS)	NEUROLOGICAL DYSFUNCTIONS (percentage animals developing loss of bladder/hindlimb control) (HSV-2, strain MS) [%]	CC50 [3] [µg/mL]	IC50 (CMV (strain Towne); first value) [µg/mL]	IC50 (CMV (strain Towne); second value marked * (repeat)) [µg/mL]
CCCCC(=O)Oc1c(C(OC(=O)CCCC)OC(=O)CCCC)c(=O)n(C)c2ccccc12 [Formula 1.8]	> 10	30	4	5						
CC(C)(CO)[C@@H](O)C(=O)NCCC(=O)O [pantothenic acid]					significantly enhances the antiviral activity					
COc1c(C(OC(C)=O)OC(C)=O)c(=O)n(Cc2ccccc2)c2ccc(C)cc12 [Formula 1.3]		2.7		3		1.8	0			
CC(=O)Oc1c(C(OC(C)=O)OC(C)=O)c(=O)n(C)c2ccccc12 [Formula 1.5]	25	25	3	4		1.3	0			
CC(=O)Oc1c(C(OC(C)=O)OC(C)=O)c(=O)n(Cc2ccccc2)c2ccc(OCc3ccccc3)cc12 [Formula 1.15]	40	29	10	10						
CC(=O)Oc1c(C(OC(C)=O)OC(C)=O)c(=O)n(Cc2ccccc2)c2ccc(C)cc12 [Formula 1.10]		18		7						
C=CCOC(=O)Cn1c(=O)c(C(OC(C)=O)OC(C)=O)c(OC(C)=O)c2ccccc21 [Formula 1.16]		43		10						
CCCCCCn1c(=O)c(C(OC(C)=O)OC(C)=O)c(OC)c2ccccc21 [Formula 1.1]		6		1.4						
CC(=O)Oc1c(C(OC(C)=O)OC(C)=O)c(=O)n(-c2ccccc2)c2ccccc12 [Formula 1.7]	18	20	4	4						
CCCCCCn1c(=O)c(C(OC)OC)c(OC)c2cc(C)ccc21 [Formula 1.17]		30		5						
CC(=O)Oc1ccc2c(c1)c(OC(C)=O)c(C(OC(C)=O)OC(C)=O)c(=O)n2Cc1ccccc1 [Formula 1.2]	3	21.5	2.5	3						
CCC(=O)Oc1c(C(OC(=O)CC)OC(=O)CC)c(=O)n(C)c2ccccc12 [Formula 1.12]	29	29	7	8						
CC(=O)Oc1c(C(OC(C)=O)OC(C)=O)c(=O)n(Cc2ccccc2)c2ccccc12 [Formula 1.6]	37	32	8	4				28	7	8
COc1ccc(OCCCOCn2c(=O)c(C(OC(C)=O)OC(C)=O)c(OC(C)=O)c3ccccc32)c(Cl)c1 [Formula 1.14]		30		9		1.8	12	50	16	18
CCCCCCn1c(=O)c(C(OC(C)=O)OC(C)=O)c(OC(C)=O)c2cc(C)ccc21 [Formula 1.9]	37	32	8	6		2.5	75			
CC(C)(CO)[C@@H](O)C(=O)NCCCO [dexpanthenol]					significantly enhances the antiviral activity					
Nc1nc2c(ncn2COCCO)c(=O)[nH]1 [Acyclovir, 9-[(2-hydroxyethoxy)methyl]guanine, reference compound]						1.5	50			
CCCCCCCn1c(=O)c(C(OC(C)=O)OC(C)=O)c(OC(C)=O)c2ccccc21 [Formula 1.11]	43	25	10	8						
COc1c(C(OC(C)=O)OC(C)=O)c(=O)n(C)c2ccccc12 [Formula 1.13]		18		8						
CCCCCCn1c(=O)c(C(OC(C)=O)OC(C)=O)c(OC)c2cc(C)ccc21 [Formula 1.4]		2.5		3						
